Literature values in patent US20060222695A1, “Deoxycholic acid liposome-based dermatological topical preparation” (priority 2005, published 2006).

System: cell cultures and tissue specimen
Details: similar to the effects of laboratory detergents

C[C@H](CCC(=O)O)[C@H]1CC[C@H]2[C@@H]3CC[C@@H]4C[C@H](O)CC[C@]4(C)[C@H]3C[C@H](O)[C@]12C [Deoxycholic acid]
effect on cells and fat tissue: loss of cell viability, cell membrane lysis and disruption of fat architecture
